Results reported in patent EP0060659A1, “Pharmaceutical composition for tumour treatment and process for preparing it” (NATIONAL FOUNDATION FOR CANCER RESEARCH, INC., priority 1981, dated 1982).
“And” between values parts separate entries of the source, which are not always exact repeats. Equal values may be shown once.

Legend:
tumour cells = conditions: cited from earlier work
Ehrlich ascites cells = assay: Ehrlich ascites tumour in mice, test substance in drinking water (Example 2); format: in vivo, adult female white Swiss mice; parameters: average weight of the tumours / weight of the excised tissues (tumour): unit not given here
Description: 30 adult female white Swiss mice were inoculated behind the right foreleg on the ventral side with about 5 x 10^6 Ehrlich ascites cells in 0.2 ml of physiological saline. The mice were randomized and divided into three groups, each group containing 10 animals. All animals received water to drink during days 1 and 2. On day 3, the water of one group (Group B) was replaced by a 0.05 molar solution of glyoxal whilst the water of another group (Group C) was replaced by a 0.05 molar solution of a glyoxal-cysteine adduct prepared essentially as described in Example 1. The third, or control, group (Group A) continued to receive water. All groups could drink ad libidum.
No weight loss was observed.
All animals were narcotized and their tumours excised and cleaned from the surrounding tissues.
In the cases where the tumour which developed was slightly ascitic, the fluid was not weighed and this is believed to account for the rather lower weight of these tumours.

For `CC(O)C=CC=O` (stereo not drawn) [4-hydroxypentenal], the “toxicity to cells of normal tissues” value (tumour cells) is listed as “only slightly toxic”.

With `O=CC=O` [glyoxal] the “toxic symptoms or loss of weight” value (Ehrlich ascites cells; after 7 days, 0.05 molar solution as drinking water) was “no toxic symptoms or loss of weight”, the “size or form of the tumour on visual inspection” value (Ehrlich ascites cells; after 7 days, compared with control group) was “No significant decrease” and the “inhibition over the control” value (Ehrlich ascites cells; from average tumour weights, 0.05 molar solution as drinking water) was “about 18%”. For the same compound, the “average weight of the tumours” value (Ehrlich ascites cells; group of 10 mice, 0.05 molar solution as drinking water from day 3, control group average 1200) was 985 and the “weight of the excised tissues (tumour)” value (Ehrlich ascites cells; individual animals, 0.05 molar solution as drinking water from day 3, ad libitum, excised after 7 days, * = slightly ascitic tumour, fluid not weighed) was 800 and 530 and 190 and 90* and 1270 and 330 and 1220 and 1700 and 2740 and 980.
